Reference: publication PMC5063506, “A Novel Class of Small Molecule Agonists with Preference for Human over Mouse TLR4 Activation” (PLoS ONE, 2016)

Columns and labels:
[1] = test system: cotton rat PBMCs; test: Cytokine gene expression in cotton rat PBMCs (QuantiGene Plex); assay type: cell-based; details: 1 μg/ml, 24 h
Description: Splenocytes were isolated from naïve BALB/c mice by dissociating spleens with a GentleMACS (Miltenyi) instrument, then filtration through […] screens. For other species, blood was obtained through venipuncture or cardiac puncture into heparinized tubes, then diluted 1:1 with PBS or HBSS and layered onto Ficoll-Histopaque (GE Healthcare) for blood from healthy human volunteers and cynomolgus macaques, Lympholyte-Mammal (Cedarlane Labs) for New Zealand white rabbits, Sprague-Dawley rats, Hartley guinea pigs, cotton rats, and ferrets, followed by standard density centrifugation techniques. […]
PBMCs (human, cynomolgus macaque, guinea pig, ferret, rabbit, rat, and cotton rat) or splenocytes (mouse) were seeded onto 96-well flat bottom plates at 5 x 10^5 cells/well and stimulated with TLR4 agonists at 1 and 0.2 μg/ml for 24 h at 37°C. […] For human, cyno, mouse, and rat, cell-free SNs were analyzed via human, NHP, mouse, and rat MILLIPLEX kits. For GP, ferret, rabbit, and CR, cells were lysed by Millipore lysing buffer and snap frozen at -70 C until ready for analysis by Affymetrix QuantiGene 2.0 Plex kits. […] Signal was detected using a Bioplex 200 instrument (BioRad). […]
Fig 9 Species-specific activation of IL-6, TNF-α, and chemokine expression in primary cells. […] For human, cyno, mouse, and rat, SNs were analyzed via human, NHP, mouse, and rat MILLIPLEX kits. […]

[2] = test system: wild-type C57BL/6 mice; test: In vivo serum cytokines in wild-type C57BL/6 mice; parameters: species or system mouse; details: 50 μg IP, serum at 2 h (IL-12 p40, IL-6) and 6 h (IL-12 p40, MIG, RANTES)
Excerpt: (§1) The humanized TLR4/MD-2 mice, described in detail in [15], express human TLR4 and human MD-2 from bacterial artificial chromosome transgenes that were bred to the mouse TLR4/MD-2 double-knockout (DKO) on a C57BL/6J background. Because the hMD-2 BAC transgene is integrated on the Y-chromosome, only male mice were used in the study. Generally, hMD-2 BAC+ males are bred to hTLR4 BAC+ females (both on DKO background) and male pups were screened for the presence of hTLR4 BAC. Double positives served as the fully humanized TLR4/MD-2 mice and hTLR4 BAC negative mice served as functional KO. Wild-type C57BL/6 mice were bred in parallel. All breeding was performed in an SPF facility at the University of Washington and all protocols were approved by the University of Washington IACUC. For in vivo cytokines, mice were injected intraperitoneally with 50 μg of either AZ618 or MPL in 0.2 ml PBS. Mice were bled from the retroorbital sinus 2 h after injection and terminal cardiocentesis was performed at 6 h for the second blood sample. Serum samples were analyzed via MILLIPLEX kits (EMD Millipore).
(§2) C57BL/6 mice (6–12 per group) were immunized IP with 50 μg MPL or AZ618 and then were bled at 2 h via retro-orbital route and at 6 h via cardiac puncture. Serum was analyzed by multiplex Millipore kits for cytokine content. […]

[3] = test system: hTLR4/MD2 KIKO mice; test: In vivo serum cytokines in hTLR4/MD2 KIKO mice; parameters: species or system mouse; details: 50 μg IP, serum at 2 h and 6 h
Excerpt: as §1, §2

SMILES: Cc1cc(C)cc(N(C(=O)c2cc(-c3ccccc3)n(-c3ccccc3)n2)C(C(=O)NC2CCCC2)c2ccc(CC(=O)O)cc2)c1 (stereo not drawn) [AZ618, 2-(4-(2-(cyclopentylamino)-1-(N-(3,5-dimethylphenyl)-1,5-diphenyl-1H-pyrazole-3-carboxamido)-2-oxoethyl)phenyl)acetic acid]
- activation of cotton rat PBMCs [1]: able to activate
- serum cytokine induction in wild-type C57BL/6 mice [2]: not AZ618 induced
- serum cytokine induction in hTLR4/MD2 KIKO mice [3]: induced a very similar pattern of cytokines
